ChEMBL document CHEMBL3867434, “Regiospecific Prenylation of Hydroxyxanthones by a Plant Flavonoid Prenyltransferase” (J Nat Prod, 2016)
The source made the active and inactive calls. The rule behind the calls is not given here.

Assay: Neuroprotective activity in human SK-N-SH cells assessed as inhibition of glutamate-induced injury by measuring cell survival at 10 uM preincubated for 4 hrs followed by glutamate addition measured after 4 hrs by MTT assay relative to control
Assay type: functional, cell-based

| Structure (SMILES) | Survival |
| --- | --- |
| Oc1ccc(/C=C/c2cc(O)cc(O)c2)cc1 | 79.9% |
| CC(C)=CCc1c(O)cc2oc3ccc(O)cc3c(=O)c2c1O | 82.9% |

Assay: Neuroprotective activity in human SK-N-SH cells assessed as inhibition of glutamate-induced injury by measuring increase in cell viability at 10 uM preincubated for 4 hrs followed by glutamate addition measured after 4 hrs by MTT assay
Assay type: functional, cell-based

| Structure (SMILES) | Activity |
| --- | --- |
| CC(C)=CCc1c(O)cc2oc3cc(O)cc(O)c3c(=O)c2c1O | Active |
| CC(C)=CCc1c(O)cc2oc3cc(O)c(CC=C(C)C)c(O)c3c(=O)c2c1O | Active |
| CC(C)=CCc1c(O)cc2oc3ccc(O)cc3c(=O)c2c1O | Active |
| O=c1c2cc(O)ccc2oc2cc(O)cc(O)c12 | Active |
| O=c1c2c(O)cc(O)cc2oc2cc(O)cc(O)c12 | Active |
